Source: ChEMBL document CHEMBL4507285, “Data for DCP probe MRL-SYKi” (2021)
Activity calls are given as the source filed them. No cut-off for these calls is given here.

Legend:
[1] = biological target: Activin receptor type-1B (Homo sapiens) (UniProt P36896); details: Compound concentration 100.0 nM
[2] = biological target: Cyclin-dependent kinase-like 3 (Homo sapiens) (UniProt Q8IVW4); details: Compound concentration 100.0 nM
[3] = biological target: Ribosomal protein S6 kinase alpha-4 (Homo sapiens) (UniProt O75676); details: Compound concentration 100.0 nM
[4] = test system: Mast/stem cell growth factor receptor Kit (Homo sapiens), P10721 [V559D,T670I]; details: Compound concentration 100.0 nM
[5] = biological target: Ribosomal protein S6 kinase alpha-3 (Homo sapiens) (UniProt P51812); details: Compound concentration 100.0 nM
[6] = biological target: Serine/threonine-protein kinase VRK2 (Homo sapiens) (UniProt Q86Y07); details: Compound concentration 100.0 nM
[7] = biological target: Serine/threonine-protein kinase ULK3 (Homo sapiens) (UniProt Q6PHR2); details: Compound concentration 100.0 nM
[8] = biological target: Serine/threonine-protein kinase TAO2 (Homo sapiens) (UniProt Q9UL54); details: Compound concentration 100.0 nM
[9] = biological target: Cyclin-dependent kinase 16 (Homo sapiens) (UniProt Q00536); details: Compound concentration 100.0 nM
[10] = biological target: Mitogen-activated protein kinase kinase kinase 1 (Homo sapiens) (UniProt Q13233); details: Compound concentration 100.0 nM
[11] = biological target: Activated CDC42 kinase 1 (Homo sapiens) (UniProt Q07912); details: Compound concentration 100.0 nM
[12] = biological target: Casein kinase I isoform gamma-1 (Homo sapiens) (UniProt Q9HCP0); details: Compound concentration 100.0 nM
[13] = biological target: Death-associated protein kinase 3 (Homo sapiens) (UniProt O43293); details: Compound concentration 100.0 nM
[14] = biological target: Ephrin type-A receptor 4 (Homo sapiens) (UniProt P54764); details: Compound concentration 100.0 nM
Mast cell = test: Human Mast Cell degranulation; type: cell-based
[15] = biological target: Inhibitor of nuclear factor kappa-B kinase subunit alpha (Homo sapiens) (UniProt O15111); details: Compound concentration 100.0 nM
[16] = biological target: Muscarinic acetylcholine receptor M3 (Homo sapiens) (UniProt P20309); details: Compound concentration 10.0 uM
[17] = biological target: Dual specificity mitogen-activated protein kinase kinase 2 (Homo sapiens) (UniProt P36507); details: Compound concentration 100.0 nM
[18] = biological target: Interleukin-1 receptor-associated kinase 4 (Homo sapiens) (UniProt Q9NWZ3); details: Compound concentration 100.0 nM
[19] = biological target: Serine/threonine-protein kinase WNK4 (Homo sapiens) (UniProt Q96J92); details: Compound concentration 100.0 nM
[20] = biological target: Serine/threonine-protein kinase 35 (Homo sapiens) (UniProt Q8TDR2); details: Compound concentration 100.0 nM
[21] = biological target: Tyrosine-protein kinase HCK (Homo sapiens) (UniProt P08631); details: Compound concentration 100.0 nM
[22] = biological target: Ephrin type-A receptor 2 (Homo sapiens) (UniProt P29317); details: Compound concentration 100.0 nM
[23] = biological target: Mitogen-activated protein kinase kinase kinase 11 (Homo sapiens) (UniProt Q16584); details: Compound concentration 100.0 nM
[24] = biological target: Calcium/calmodulin-dependent protein kinase type IV (Homo sapiens) (UniProt Q16566); details: Compound concentration 100.0 nM
[25] = biological target: Receptor-interacting serine/threonine-protein kinase 4 (Homo sapiens) (UniProt P57078); details: Compound concentration 100.0 nM
[26] = biological target: Tyrosine-protein kinase TXK (Homo sapiens) (UniProt P42681); details: Compound concentration 100.0 nM
[27] = biological target: Cyclin-dependent kinase 8 (Homo sapiens) (UniProt P49336); details: Compound concentration 100.0 nM
[28] = test system: Receptor-type tyrosine-protein kinase FLT3 (Homo sapiens), P36888 [UNDEFINED MUTATION]; details: Compound concentration 100.0 nM
[29] = test system: Proto-oncogene tyrosine-protein kinase receptor Ret (Homo sapiens), P07949 [V804L]; details: Compound concentration 100.0 nM
[30] = biological target: Ephrin type-A receptor 6 (Homo sapiens) (UniProt Q9UF33); details: Compound concentration 100.0 nM
[31] = biological target: Tyrosine-protein kinase Fyn (Homo sapiens, UniProt P06241); details: Compound concentration 100.0 nM
[32] = biological target: Aurora kinase A (Homo sapiens) (UniProt O14965); details: Compound concentration 100.0 nM
[33] = biological target: Mitogen-activated protein kinase kinase kinase kinase 5 (Homo sapiens) (UniProt Q9Y4K4); details: Compound concentration 100.0 nM
[34] = biological target: Tyrosine-protein kinase Srms (Homo sapiens) (UniProt Q9H3Y6); details: Compound concentration 100.0 nM
[35] = biological target: Serine/threonine-protein kinase LATS1 (Homo sapiens) (UniProt O95835); details: Compound concentration 100.0 nM
[36] = biological target: MAP kinase-activated protein kinase 2 (Homo sapiens) (UniProt P49137); details: Compound concentration 100.0 nM
[37] = biological target: Tyrosine-protein kinase ABL1 (Homo sapiens) (UniProt P00519); details: Compound concentration 100.0 nM
[38] = test system: Tyrosine-protein kinase ABL1 (Homo sapiens), P00519 [Y253F]; details: Compound concentration 100.0 nM
[39] = biological target: Cyclin-dependent kinase 11B (Homo sapiens) (UniProt P21127); details: Compound concentration 100.0 nM
[40] = biological target: Rhodopsin kinase GRK1 (Homo sapiens) (UniProt Q15835); details: Compound concentration 100.0 nM
[41] = biological target: cGMP-dependent protein kinase 1 (Homo sapiens) (UniProt Q13976); details: Compound concentration 100.0 nM
[42] = test system: Mast/stem cell growth factor receptor Kit (Homo sapiens), P10721 [V559D]; details: Compound concentration 100.0 nM
[43] = biological target: NUAK family SNF1-like kinase 1 (Homo sapiens) (UniProt O60285); details: Compound concentration 100.0 nM
[44] = test system: Receptor-type tyrosine-protein kinase FLT3 (Homo sapiens), P36888 [R834Q]; details: Compound concentration 100.0 nM
[45] = test system: Mast/stem cell growth factor receptor Kit (Homo sapiens), P10721 [A829P]; details: Compound concentration 100.0 nM
Mast/stem cell growth factor receptor Kit (Homo sapiens), P10721 [A829P], sequence (P10721 whole entry A829P): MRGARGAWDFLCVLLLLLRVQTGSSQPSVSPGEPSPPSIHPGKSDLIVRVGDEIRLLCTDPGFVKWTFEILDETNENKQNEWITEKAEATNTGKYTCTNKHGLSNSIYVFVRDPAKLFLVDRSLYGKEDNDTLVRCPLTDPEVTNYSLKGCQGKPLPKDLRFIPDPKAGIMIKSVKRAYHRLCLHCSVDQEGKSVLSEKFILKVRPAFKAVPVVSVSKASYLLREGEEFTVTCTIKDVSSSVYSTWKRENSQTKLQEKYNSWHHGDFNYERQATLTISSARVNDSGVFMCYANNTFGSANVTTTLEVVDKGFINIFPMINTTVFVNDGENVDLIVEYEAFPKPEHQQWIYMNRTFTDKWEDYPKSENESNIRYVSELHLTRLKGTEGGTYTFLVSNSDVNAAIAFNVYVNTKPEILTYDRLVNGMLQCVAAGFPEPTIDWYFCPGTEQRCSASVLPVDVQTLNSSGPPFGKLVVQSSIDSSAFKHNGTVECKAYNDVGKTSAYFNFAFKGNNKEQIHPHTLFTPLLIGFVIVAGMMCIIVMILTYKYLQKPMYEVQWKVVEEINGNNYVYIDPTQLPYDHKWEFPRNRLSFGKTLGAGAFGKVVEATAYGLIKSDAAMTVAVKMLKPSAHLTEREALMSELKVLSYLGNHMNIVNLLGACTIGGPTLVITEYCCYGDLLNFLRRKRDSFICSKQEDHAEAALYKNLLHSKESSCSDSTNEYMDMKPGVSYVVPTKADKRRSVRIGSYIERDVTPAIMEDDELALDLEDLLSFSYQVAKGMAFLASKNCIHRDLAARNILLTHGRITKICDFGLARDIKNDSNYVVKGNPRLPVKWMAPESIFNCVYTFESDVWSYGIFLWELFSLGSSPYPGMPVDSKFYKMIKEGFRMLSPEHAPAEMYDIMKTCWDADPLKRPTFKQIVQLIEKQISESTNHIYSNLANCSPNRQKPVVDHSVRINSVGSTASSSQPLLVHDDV

Serine/threonine-protein kinase VRK2 (Homo sapiens), sequence (Q86Y07 whole entry): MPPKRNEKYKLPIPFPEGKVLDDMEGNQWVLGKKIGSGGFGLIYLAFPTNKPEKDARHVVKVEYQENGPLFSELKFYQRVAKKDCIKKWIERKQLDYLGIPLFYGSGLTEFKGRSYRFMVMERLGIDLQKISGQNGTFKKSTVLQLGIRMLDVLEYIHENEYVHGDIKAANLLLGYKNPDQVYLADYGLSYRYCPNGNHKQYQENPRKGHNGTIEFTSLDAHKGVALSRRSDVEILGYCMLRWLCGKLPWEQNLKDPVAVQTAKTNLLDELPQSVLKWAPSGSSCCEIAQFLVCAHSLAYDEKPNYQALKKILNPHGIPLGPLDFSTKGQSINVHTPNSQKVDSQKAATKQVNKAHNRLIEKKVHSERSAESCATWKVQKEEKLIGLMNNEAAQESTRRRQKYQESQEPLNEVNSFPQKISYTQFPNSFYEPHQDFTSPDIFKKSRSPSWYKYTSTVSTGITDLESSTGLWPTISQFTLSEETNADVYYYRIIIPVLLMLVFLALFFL
Ribosomal protein S6 kinase alpha-3 (Homo sapiens), sequence (P51812 whole entry): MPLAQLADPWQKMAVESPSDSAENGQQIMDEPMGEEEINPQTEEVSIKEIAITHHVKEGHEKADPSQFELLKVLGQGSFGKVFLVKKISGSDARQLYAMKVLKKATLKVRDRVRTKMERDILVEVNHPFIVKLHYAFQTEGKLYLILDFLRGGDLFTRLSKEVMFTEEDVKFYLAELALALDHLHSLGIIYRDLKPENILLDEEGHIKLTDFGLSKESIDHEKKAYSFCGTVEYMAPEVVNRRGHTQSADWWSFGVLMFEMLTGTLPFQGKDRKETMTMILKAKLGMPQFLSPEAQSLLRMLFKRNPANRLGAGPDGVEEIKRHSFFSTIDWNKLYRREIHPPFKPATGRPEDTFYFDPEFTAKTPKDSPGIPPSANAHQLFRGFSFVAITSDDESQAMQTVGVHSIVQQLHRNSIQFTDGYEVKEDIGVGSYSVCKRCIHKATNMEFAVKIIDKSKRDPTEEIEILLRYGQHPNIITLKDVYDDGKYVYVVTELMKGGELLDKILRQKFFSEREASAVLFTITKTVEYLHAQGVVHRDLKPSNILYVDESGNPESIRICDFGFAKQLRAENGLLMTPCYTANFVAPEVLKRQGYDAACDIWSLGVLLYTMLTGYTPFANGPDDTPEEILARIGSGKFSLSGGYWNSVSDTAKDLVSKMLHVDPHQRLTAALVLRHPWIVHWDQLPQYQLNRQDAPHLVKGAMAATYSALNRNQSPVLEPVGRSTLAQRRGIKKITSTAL
Aurora kinase A (Homo sapiens), sequence (O14965 whole entry): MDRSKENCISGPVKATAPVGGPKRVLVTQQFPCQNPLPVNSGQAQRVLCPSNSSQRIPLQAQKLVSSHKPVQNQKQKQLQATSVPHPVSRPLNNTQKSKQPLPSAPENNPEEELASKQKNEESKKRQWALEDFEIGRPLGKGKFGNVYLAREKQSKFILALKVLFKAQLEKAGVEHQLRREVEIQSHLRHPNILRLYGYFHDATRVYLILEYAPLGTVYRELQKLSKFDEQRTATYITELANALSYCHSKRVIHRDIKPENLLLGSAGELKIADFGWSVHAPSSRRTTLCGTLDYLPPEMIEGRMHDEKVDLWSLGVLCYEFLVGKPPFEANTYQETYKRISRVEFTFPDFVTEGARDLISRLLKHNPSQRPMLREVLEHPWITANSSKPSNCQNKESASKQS
Casein kinase I isoform gamma-1 (Homo sapiens), sequence (Q9HCP0 whole entry, looked up, canonical isoform): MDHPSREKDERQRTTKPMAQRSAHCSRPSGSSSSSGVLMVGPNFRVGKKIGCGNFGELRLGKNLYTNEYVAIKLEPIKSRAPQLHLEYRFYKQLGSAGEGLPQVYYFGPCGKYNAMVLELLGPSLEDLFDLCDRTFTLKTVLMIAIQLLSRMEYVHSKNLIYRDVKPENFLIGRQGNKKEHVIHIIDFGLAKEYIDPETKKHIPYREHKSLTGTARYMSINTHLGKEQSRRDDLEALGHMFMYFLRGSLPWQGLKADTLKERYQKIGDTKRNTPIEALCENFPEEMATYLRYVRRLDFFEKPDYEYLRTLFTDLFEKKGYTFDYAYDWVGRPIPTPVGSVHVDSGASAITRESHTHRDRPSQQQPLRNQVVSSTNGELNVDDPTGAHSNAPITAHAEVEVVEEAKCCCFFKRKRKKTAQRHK
Mitogen-activated protein kinase kinase kinase kinase 5 (Homo sapiens), sequence (Q9Y4K4 whole entry, looked up): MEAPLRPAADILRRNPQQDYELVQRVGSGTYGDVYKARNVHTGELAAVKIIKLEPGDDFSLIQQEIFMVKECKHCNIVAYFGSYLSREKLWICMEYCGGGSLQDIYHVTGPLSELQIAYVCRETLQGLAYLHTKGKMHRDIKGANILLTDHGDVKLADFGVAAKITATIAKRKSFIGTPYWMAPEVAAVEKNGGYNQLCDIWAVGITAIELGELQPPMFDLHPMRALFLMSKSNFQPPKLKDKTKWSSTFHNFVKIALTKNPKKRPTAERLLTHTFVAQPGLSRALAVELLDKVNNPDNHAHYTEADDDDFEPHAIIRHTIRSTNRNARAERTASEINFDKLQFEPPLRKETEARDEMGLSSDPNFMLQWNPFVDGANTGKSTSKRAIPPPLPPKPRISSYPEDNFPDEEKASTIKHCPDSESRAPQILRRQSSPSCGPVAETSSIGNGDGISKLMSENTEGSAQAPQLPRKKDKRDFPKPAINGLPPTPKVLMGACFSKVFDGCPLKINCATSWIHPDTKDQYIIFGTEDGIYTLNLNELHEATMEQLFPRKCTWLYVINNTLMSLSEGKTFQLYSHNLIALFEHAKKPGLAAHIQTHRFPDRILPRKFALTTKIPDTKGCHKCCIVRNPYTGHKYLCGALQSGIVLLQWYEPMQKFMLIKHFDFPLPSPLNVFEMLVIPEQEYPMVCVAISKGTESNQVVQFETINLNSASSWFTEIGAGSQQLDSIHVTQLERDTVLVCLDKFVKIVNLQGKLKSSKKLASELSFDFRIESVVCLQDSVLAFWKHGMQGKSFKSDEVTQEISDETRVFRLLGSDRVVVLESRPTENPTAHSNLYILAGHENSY
Tyrosine-protein kinase HCK (Homo sapiens), sequence (P08631 2-526 limits assumed): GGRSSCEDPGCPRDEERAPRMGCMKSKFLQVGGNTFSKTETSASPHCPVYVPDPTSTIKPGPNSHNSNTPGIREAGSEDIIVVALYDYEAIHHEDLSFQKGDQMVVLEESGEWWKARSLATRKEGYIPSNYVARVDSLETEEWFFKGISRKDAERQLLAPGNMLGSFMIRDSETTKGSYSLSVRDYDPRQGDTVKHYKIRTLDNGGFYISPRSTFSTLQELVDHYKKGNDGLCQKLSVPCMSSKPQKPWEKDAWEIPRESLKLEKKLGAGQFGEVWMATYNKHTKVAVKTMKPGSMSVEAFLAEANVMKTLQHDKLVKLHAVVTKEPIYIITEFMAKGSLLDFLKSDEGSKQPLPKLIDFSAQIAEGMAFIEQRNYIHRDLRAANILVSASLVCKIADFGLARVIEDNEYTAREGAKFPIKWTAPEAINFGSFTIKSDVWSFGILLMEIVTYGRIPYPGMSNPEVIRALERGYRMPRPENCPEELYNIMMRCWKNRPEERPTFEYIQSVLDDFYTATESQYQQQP
Tyrosine-protein kinase Srms (Homo sapiens), sequence (Q9H3Y6 whole entry): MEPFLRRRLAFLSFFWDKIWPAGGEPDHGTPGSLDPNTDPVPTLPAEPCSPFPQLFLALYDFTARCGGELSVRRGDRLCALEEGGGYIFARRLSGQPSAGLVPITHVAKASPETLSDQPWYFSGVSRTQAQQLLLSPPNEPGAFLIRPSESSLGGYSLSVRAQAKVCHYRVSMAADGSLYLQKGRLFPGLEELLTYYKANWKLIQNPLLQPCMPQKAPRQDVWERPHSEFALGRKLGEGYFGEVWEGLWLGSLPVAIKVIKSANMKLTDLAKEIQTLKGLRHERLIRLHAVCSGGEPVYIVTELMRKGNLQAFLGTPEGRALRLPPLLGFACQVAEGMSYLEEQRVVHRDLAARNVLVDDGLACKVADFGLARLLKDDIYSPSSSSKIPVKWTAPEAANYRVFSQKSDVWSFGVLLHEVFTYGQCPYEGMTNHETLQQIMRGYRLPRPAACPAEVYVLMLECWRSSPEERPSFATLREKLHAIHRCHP

Cc1ccc(-c2cnc([C@@]3(O)CC[C@H](C(=O)O)C(C)(C)C3)s2)cc1Nc1cccc(C(F)(F)F)n1 [MRL-SYKi-NC]
residual activity [1]: 100% | residual activity [2]: 100% | residual activity [3]: 81.3% | residual activity [4]: 99.7% | residual activity [5]: 93% | residual activity [6]: 100% | residual activity [7]: 68.1% | residual activity [8]: 84.7% | residual activity [9]: 93% | residual activity [10]: 96% | residual activity [11]: 100% | residual activity [12]: 91.8% | residual activity [13]: 92.7% | residual activity [14]: 100% | IC50 (Mast cell): > 10 µM (not active) | residual activity [15]: 69.7% | inhibition [16]: 6.69% | residual activity [17]: 87% | residual activity [18]: 48.8% | residual activity [19]: 31.8% | residual activity [20]: 97.3% | residual activity [21]: 71.9% | residual activity [22]: 100% | residual activity [23]: 100% | residual activity [24]: 100% | residual activity [25]: 92.8% | residual activity [26]: 88.4% | residual activity [27]: 78.7% | residual activity [28]: 56.9% | residual activity [29]: 100% | residual activity [30]: 100% | residual activity [31]: 100% | residual activity [32]: 60.2% | residual activity [33]: 95.4% | residual activity [34]: 100% | residual activity [35]: 100% | residual activity [36]: 97.9% | residual activity [37]: 78.4% | residual activity [38]: 81.9% | residual activity [39]: 95.4% | residual activity [40]: 82.1% | residual activity [41]: 77.5% | residual activity [42]: 90% | residual activity [43]: 100% | residual activity [44]: 70.5% | residual activity [45]: 61.5%

Cc1cc(Nc2nccc(C)n2)cc(-c2cnc([C@@]3(O)CC[C@H](C(=O)O)C(C)(C)C3)s2)c1 [MRL-SYKi]
residual activity [1]: 92.7% | residual activity [2]: 100% | residual activity [3]: 100% | residual activity [4]: 83.9% | residual activity [5]: 87.6% | residual activity [6]: 100% | residual activity [7]: 56.1% | residual activity [8]: 97.5% | residual activity [9]: 100% | residual activity [10]: 100% | residual activity [11]: 100% | residual activity [12]: 100% | residual activity [13]: 100% | residual activity [14]: 78.6% | IC50 (Mast cell): 0.038 µM (active) | residual activity [15]: 100% | inhibition [16]: 17.4% | residual activity [17]: 89.4% | residual activity [18]: 100% | residual activity [19]: 100% | residual activity [20]: 100% | residual activity [21]: 83.3% | residual activity [22]: 100% | residual activity [23]: 92.6% | residual activity [24]: 92.3% | residual activity [25]: 91.9% | residual activity [26]: 64% | residual activity [27]: 100% | residual activity [28]: 100% | residual activity [29]: 87% | residual activity [30]: 95.8% | residual activity [31]: 36.1% | residual activity [32]: 100% | residual activity [33]: 95.4% | residual activity [34]: 81.2% | residual activity [35]: 100% | residual activity [36]: 100% | residual activity [37]: 45.3% | residual activity [38]: 100% | residual activity [39]: 93.3% | residual activity [40]: 71.7% | residual activity [41]: 100% | residual activity [42]: 100% | residual activity [43]: 100% | residual activity [44]: 96.3% | residual activity [45]: 100%
